Measurements published in patent publication US9751853B2, “Solid forms of 3-(5-amino-2-methyl-4-oxo-4H-quinazolin-3-yl)-piperidine-2,6-dione, and their pharmaceutical compositions and uses” (Celgene Corporation, priority 2011, dated 2017).
Entries after “also recorded” stand apart in the source; their conditions may differ.

Tests used:
Solubility by HPLC = format: physicochemical; settings: thermodynamic from solid, room temperature
Procedure: Solubility by HPLC: Solubility of Form A in selected aqueous and organic solvents was determined by mixing solid with solvents at room temperature. The samples were filtered after 24 hr of agitation and quantified by an HPLC method, except for DMSO, for which the solubility was measured after 1 hr of agitation.

[1] = Solvent/anti-solvent recrystallization, solid form by XRPD; format: physicochemical; settings: MeCN/H2O, ratio 1:5
Procedure: Solvent/Anti-Solvent Recrystallization: The selected solvent (MeCN/water) was saturated with Compound A hydrochloride at room temperature. Once the solids were completely dissolved, an anti-solvent (acetone or IPA) was added into the solution. The mixture was stirred at room temperature overnight. If no precipitation occurred, the vial was further cooled by placing into a refrigerator (about 0-5° C.). The solids resulting from the recrystallization were filtered and air-dried.
X-ray Powder Diffraction (XRPD): XRPD analysis was conducted on a Thermo ARL X'TRA™ X-ray powder diffractometer using Cu Kα radiation at 1.54 Å. The instrument was equipped with a fine focus X-ray tube. The voltage and amperage of X-ray generator were set at 45 kV and 40 mA, respectively. The divergence slices were set at 4 mm and 2 mm and the measuring slices were set at 0.5 mm and 0.2 mm. Diffracted radiation was detected by a peltier-cooled Si(Li) solid-state detector. A theta-two theta continuous scan at 2.40°/min (0.5 sec/0.02° step) from 1.5°2θ to 40°2θ was used. A sintered alumina standard was used to check the peak position. In general, positions of XRPD peaks are expected to individually vary on a measurement-by-measurement basis by about +0.2°2θ. […]

[2] = Grinding studies, solid form by XRPD; format: physicochemical
Procedure: Grinding Studies: Grinding experiments were performed using a Wig-L-Bug shaker. About 50 mg of Compound A hydrochloride was added to a polystyrene tube (1″×½″) with a Plexi bead (⅜″). The vial was capped and placed on the shaker for about 50 s. For wet grinding, drops of water were added to the vial and a wet paste was formed prior to placing on the shaker.
(§1) X-ray Powder Diffraction (XRPD): XRPD analysis was conducted on a Thermo ARL X'TRA™ X-ray powder diffractometer using Cu Kα radiation at 1.54 Å. The instrument was equipped with a fine focus X-ray tube. The voltage and amperage of X-ray generator were set at 45 kV and 40 mA, respectively. The divergence slices were set at 4 mm and 2 mm and the measuring slices were set at 0.5 mm and 0.2 mm. Diffracted radiation was detected by a peltier-cooled Si(Li) solid-state detector. A theta-two theta continuous scan at 2.40°/min (0.5 sec/0.02° step) from 1.5°2θ to 40°2θ was used. A sintered alumina standard was used to check the peak position. In general, positions of XRPD peaks are expected to individually vary on a measurement-by-measurement basis by about +0.2°2θ. In general, as understood in the art, two XRPD patterns match one another if the characteristic peaks of the first pattern are located at approximately the same positions as the characteristic peaks of the second pattern. As understood in the art, determining whether two XRPD patterns match or whether individual peaks in two XRPD patterns match may require consideration of individual variables and parameters such as, but not limited to, preferred orientation, phase impurities, degree of crystallinity, particle size, variation in diffractometer instrument setup, variation in XRPD data collection parameters, and/or variation in XRPD data processing, among others. The determination of whether two patterns match may be performed by eye and/or by computer analysis.

[3] = Humidity studies, solid form by XRPD; format: physicochemical
Procedure: as §1, with “Humidity Studies: […] The vials were placed in 40° C./75% RH humidity chamber with one vial capped and one vial open. The solids were tested by XRPD after four weeks. […] X-ray Powder” for “X-ray Powder”

[4] = Stability upon compression; settings: 2000-psi pressure for about 1 minute

In the case of `Cc1nc2cccc(N)c2c(=O)n1C1CCC(=O)NC1=O.Cl` (centres unmarked) [Form A1, 3-(5-amino-2-methyl-4-oxo-4H-quinazolin-3-yl)-piperidine-2,6-dione hydrochloride], the solubility at 24 h (Solubility by HPLC; aqueous buffer, Acetate buffer (pH 4.0)) is reported as 310 µg/mL, the solubility at 24 h (Solubility by HPLC; aqueous buffer, Phosphate buffer (pH 6.8)) is reported as 30 µg/mL and the solubility at 24 h (Solubility by HPLC; organic solvent or mixture, Acetone) is reported as 2550 µg/mL. For the same molecule, the solubility at 24 h (Solubility by HPLC; organic solvent or mixture, Acetonitrile (AcCN)) was 20 µg/mL, the solubility at 1 h (Solubility by HPLC; organic solvent or mixture, Dimethyl Sulfoxide (DMSO), 1 hr of agitation) was 21900 µg/mL and the solubility at 24 h (Solubility by HPLC; organic solvent or mixture, Ethyl acetate (EtOAc)) was < 1 µg/mL. For the same molecule, the solubility at 24 h (Solubility by HPLC; organic solvent or mixture, Heptane) was < 1 µg/mL, the solubility at 24 h (Solubility by HPLC; organic solvent or mixture, Isopropanol (iPrOH)) was 20 µg/mL and the solubility at 24 h (Solubility by HPLC; organic solvent or mixture, Methanol (MeOH)) was 270 µg/mL. For the same molecule, the solubility at 24 h (Solubility by HPLC; organic solvent or mixture, Tetrahydrofuran (THF)) was < 5 µg/mL, the solubility at 24 h (Solubility by HPLC; organic solvent or mixture, Toluene) was < 5 µg/mL and the solubility at 24 h (Solubility by HPLC; saline or isotonic, 0.9% NaCl) was 1900 µg/mL. For the same molecule, the solubility at 24 h (Solubility by HPLC; simulated gastric fluid, 0.1N HCl) was 5340 µg/mL, the solubility at 24 h (Solubility by HPLC; Water) was 1710 µg/mL and the “XRPD Result after recrystallization” value ([1]; antisolvent Acetone) was “Form A1”. The “XRPD Result after recrystallization” value ([1]; antisolvent IPA, hydrochloride) was “partial salt dissociation; also recorded: Form Al + Form A”, the “XRPD Result after grinding” value ([2]; Dry grinding) was “unchanged” and the “XRPD Result after grinding” value ([2]; Wet grinding (paste)) was “unchanged”. The “Solid form after humidity exposure” value ([3]; 40° C./75% RH environment for four weeks) was “not changed”, the “XRPD Result after humidity exposure” value ([3]; 40° C./75% RH for 4 weeks, closed vial) was “Form A1” and the “XRPD Result after humidity exposure” value ([3]; 40° C./75% RH for 4 weeks, open vial) was “Form A1”. The “XRPD Result after humidity exposure” value ([3]; 95% RH at room temperature for 4 days, hydrochloride) was “not changed; also recorded: Form A1” and the stability upon compression [4] was “stable”.
